Assay results reported in patent publication US20070232594A1, “Aromatic amide derivatives, medicinal compositions containing the same, medical uses of both” (priority 2004, published 2007).

How the values were obtained:
human V2 receptor [1] = molecular target: T1, human V2 receptor (Homo sapiens, UniProt P30518); assay: Binding experiment for human V2 receptor ([3H]-AVP displacement, CHO cell membranes); parameters: purchased Packard BioScience; host or cells: CHO cells (membranes); conditions: [3H]-AVP binding, CHO cell membranes expressing human V2 receptor; Ki calculated from IC50 and Kd
T1 sequence (P30518 whole entry): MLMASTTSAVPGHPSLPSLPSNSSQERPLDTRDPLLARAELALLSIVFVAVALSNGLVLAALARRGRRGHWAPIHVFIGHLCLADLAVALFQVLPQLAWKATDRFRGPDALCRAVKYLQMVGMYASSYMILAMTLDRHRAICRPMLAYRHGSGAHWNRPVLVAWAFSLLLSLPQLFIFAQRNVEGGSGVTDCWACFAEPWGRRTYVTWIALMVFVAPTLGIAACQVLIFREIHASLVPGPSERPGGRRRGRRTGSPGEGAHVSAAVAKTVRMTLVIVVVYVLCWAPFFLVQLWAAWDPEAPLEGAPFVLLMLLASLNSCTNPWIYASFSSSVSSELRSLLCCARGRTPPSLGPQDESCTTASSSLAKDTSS
Description: Binding Experiment for Human V2 Receptor
Test compounds were dissolved in dimethylsulfoxide at 10 mM. The affinities for human V2 receptor were determined by an inhibition against [^3H]-Arginie vasopressin (AVP) (Perkin elmer Japan) binding to the human V2 receptor using CHO cell membranes expressed human V2 receptor (Packard BioScience). Cell membranes suspension was prepared by suspending the cell membranes as mentioned above with Assay buffer (50 mM Tris-HCl, 10 mM MgCl2, 0.1% bovine serum albumin (BSA), pH7.4) at an adequate protein concentration. The test compound solutions were prepared by diluting the dimethylsulfoxide solution of the test compound as mentioned above with Assay buffer at final concentration of 10 nM, 100 nM, 1 μM and 10 μM (in this diluting procedure, concentration of dimethylsulfoxide was adjusted to be 0.5% at each concentration of the test compound). Cell membranes suspension (50 μL), 3 nM of [^3H]-AVP (50 μL), Assay buffer (50 μL) and the solution of the test compounds at each concentrations (50 μL) were added to MultiScreen 96-well plate (Millipore) and the mixture was incubated for an hour at 25° C. with shaking slightly. After filtration by aspiration, the plate was washed with ice-cold washing buffer (50 mM Tris-HCl, 10 mM MgCl2, pH 7.4) for three times. After dry the plate, Microscinti-20 (Packard) was added to each well and the plate was shaken slightly, and then radioactivities of each well were counted with a micro plate scintillation counter, TopCount (Packard). Non-specific binding of [^3H]-AVP for cell membranes was determined by adding 1 μM of cold AVP substituted for the test compounds. The concentration of the test compounds inhibiting the specific binding of [^3H]-AVP by 50% was considered as IC50 value.
The Calculation of Kd Value of [^3H]-AVP for the Cell Membranes Expressed Human V2 Receptor
The suspension of the cell membranes expressed human V2 receptor was prepared with diluting adequately with the Assay buffer as mentioned above. In consideration for the radioactivity of [^3H]-AVP, six different concentrations (final concentration; ranging from approximately 100 pM to 6000 pM) of [^3H]-AVP were prepared by serial dilution by from 2 to 3 fold with the Assay buffer. The cell membranes suspension (50 μL), each concentrations of [^3H]-AVP (50 μL), the Assay buffer (50 μL) and 1 μM of cold AVP or the Assay buffer were added to MultiScreen 96-well plate (Millipore) and the mixture was incubated for an hour at 25° C. with shaking slightly. The specific bindings (Bvalue) of each concentrations of the [^3H]-AVP were determined by the method as mentioned above and free-bound contents (F value) at each concentrations of the [^3H]-AVP were determined. The Kd value was calculated by Scatchard analysis using the B value and the F value.

[2] = test system: anesthetized rats infused with hypotonic solution; assay: Antidiuretic effect on diuresis induced by hypotonic solution in anesthetized rats; type: in vivo, rat; conditions: 10 μg/kg intravenously
Description: The Study of Antidiuretic Effect-the Confirmation Study of Antidiuretic Effect on the Diuretic Activity Induced by Loading Hypotonic Solution in the Anesthetized Rats Infused with Hypotonic Solution
It has been reported that plasma AVP level was decreased with intravenous infusion of hypotonic solution (J. Endocrinol., Vol. 141, pp. 59-67, 1994). The antidiuretic effect of the test compounds in the rats induced a diuretic condition was determined by the method as reported by Angchanpen et al (Br. J. Pharmacol., Vol. 93, pp. 151-155, 1988). The test compounds were dissolved in dimethylsulfoxide at 10 mM, and used in the study. Male SD rats (200-400 g weight) were anesthetized with 100 mg/kg of Inactin (SIGMA) intraperitonealy and each cannula was inserted into trachea, jugular vein, bladder and femoral vein, respectively. […] The urine volume obtained via cannula inserted into bladder was measured every 10 minutes. […]
The average of urine volume measured for three 10 minutes periods before the administration was defined as the pre value (0%). After the administration of the test compounds, the urine volume was measured every 10 minutes. The antidiuretic effect, namely the decrease of the urine volume, induced by administration of test compounds was calculated from the decreasing rate of urine volume (minus %) against the pre value. […]

human V2 receptor [3] = molecular target: T1, human V2 receptor; assay: Study to confirm the agonism of human V2 receptor (intracellular Ca2+, HEK293 cells coexpressing human V2 receptor and Gqs chimeric protein); type: cell-based; parameters: expressed in transfected cells; host or cells: HEK293 cells (American Type Culture Collection), transient transfection with pCI-neo/hV2 and pLEC-Gqs5; conditions: for EC50: intracellular Ca2+, HEK293 cells coexpressing human V2 receptor and Gqs; for IA (intrinsic activity): maximum response relative to AVP = 1
Description: The Study to Confirm the Agonism of Human V2 Receptor
The experiment to confirm the response of the test compounds to human V2 receptor was carried out using the cells prepared as described below in order to use this confirmation study to see the agonism of human V2 receptor of the test compounds.
The test compounds were dissolved in dimethylsulfoxide at 10 mM and solutions of the test compounds were prepared by 10-fold serial dilution with the Assay buffer (0.1% BSA, 20 mM HEPES/Hank's balanced salt solution, pH 7.4) at the concentration of 0.1 nM to 10 μM, which were used in this study.
Human V2 receptor couples with Gs protein, one of the G-coupling protein, and consequently produces cyclic adenosine 3′, 5′-monophosphate (cAMP) via adenylate cyclase. This cAMP produce can be substituted to intracellular increase of Ca^2+ with coexpressing Gqs, a chimeric protein, and human V2 receptor (Mol. Pharmacol., Vol. 50, pp. 885-890, 1996). The responses of the test compounds for human V2 receptor were quantified by measuring this intracellular Ca^2+. The changes of intracellular Ca^2+ after adding the test compounds at each concentration as mentioned above (0.1 nM to 10 μM) were measured with a FlexStation (Molecular Devices) using a FLIPR CALCIUM ASSAY KIT (Molecular Devices).
The intrinsic activities (IA) of the test compounds were calculated from the maximum response of the test compounds as that of AVP was considered to be 1. In case of a full agonist, the EC50 values of the test compounds were calculated as the maximum response of AVP was considered to be 100% and in the case of a partial agonist, EC50 values of test compounds were calculated as the maximum response of own test compounds were considered to be 100%. The concentration that achieved to 50% response of the maximum response in a concentration-response curve was considered as EC50 value. The values of EC50 obtained in this study were shown in Table 68 described below as indications of the agonism of human V2 receptor.
The Preparation of the Cells Using Confirmation Study of an Agonism of Human V2, Receptor (HEK293 Cells Coexpressed Human V2 Receptor and Gqs Chimeric Protein)
HEK293 cells (American Type Culture Collection) were incubated in the Eagle's Minimum Essential Medium (EMEM, Invitrogen) containing 1 mM sodium pyruvate, nonessential amino acids (0.1 mM), streptomycin (100 μg/mL), penicillin (100 U/mL), 10% fetal calf serum (Sanko chemicals) in an incubator with 5% CO2 at 37° C. The transfection was carried out by adding pCI-neo hV2 expression vector, expression vector inserted with the sequence coding Gqs chimeric protein (pLEC-Gqs5, LiveWare, Molecular Devices) and Lipofectamine2000 (Invitrogen), all diluted with OPTI-MEM I Reduced Serum Medium I (Invitrogen), to the cell suspension which was prepared from the confluent cells suspended with EMEM as mentioned above without antibiotics at 1×10^6 cells/mL. After the transfection, the cells (HEK293 cells coexpressed human V2 receptor and Gqs chimeric protein) were incubated in an incubator with 5% CO2 for two days and were used as cells for confirming agonism of human V2 receptor, and used for assessment of the test compounds. The expression plasmid vector of human V2 receptor represented as pCI-neo/hV2 above was constructed by the method as described below.
The Method of Construction of Human V2 Receptor Expression Plasmid Vector
cDNA library was obtained from reverse transcription of human kidney total RNA using SuperScript II RNase H-reverse transcriptase (Invitrogen) and oligo dT. The DNA fragment encoding human V2 receptor was amplified by the PCR method using the cDNA library as a template, primers used in combination of each forward primer (sequence no. 1-3 shown below) and each reverse primer (sequence no. 4-6 shown below) respectively and pfu DNA polymerase (Stratagene). This amplified DNA fragment and pCR-blunt kit (Invitrogen), a cloning plasmid vector, were ligated by a general method of the kit. […]

Male SD rats = assay: Acute toxicity test; type: in vivo, rat; conditions: 3 mg/kg intravenously, N=3, one hour observation, urethane anesthesia
Description: Male SD rats (250-300 g weight) were divided into some groups (N=3) and each cannula was inserted into trachea and jugular vein under anesthesia with urethane (1.5 g/kg, subcutaneously). The test compound solutions were prepared with an adequate solvent to be a dosage of 3 mg/kg, and then the solution was administered intravenously via cannula. The survival rate was determined for an hour experimental period.

[4] = molecular target: T2, cytochrome P-450 (CYP3A4) (Homo sapiens, UniProt P08684); assay: Inhibitory effect on cytochrome P-450 (CYP3A4) from human liver microsome; type: in vitro ADME; conditions: test compound 10 μM, testosterone 50 μM substrate, 5 minutes at 37° C., rate of substrate metabolism versus control
T2 construct: human liver microsome (1.0 mg/mL) as enzyme; from tissue; host or cells: human liver microsomes
T2 sequence (P08684 whole entry): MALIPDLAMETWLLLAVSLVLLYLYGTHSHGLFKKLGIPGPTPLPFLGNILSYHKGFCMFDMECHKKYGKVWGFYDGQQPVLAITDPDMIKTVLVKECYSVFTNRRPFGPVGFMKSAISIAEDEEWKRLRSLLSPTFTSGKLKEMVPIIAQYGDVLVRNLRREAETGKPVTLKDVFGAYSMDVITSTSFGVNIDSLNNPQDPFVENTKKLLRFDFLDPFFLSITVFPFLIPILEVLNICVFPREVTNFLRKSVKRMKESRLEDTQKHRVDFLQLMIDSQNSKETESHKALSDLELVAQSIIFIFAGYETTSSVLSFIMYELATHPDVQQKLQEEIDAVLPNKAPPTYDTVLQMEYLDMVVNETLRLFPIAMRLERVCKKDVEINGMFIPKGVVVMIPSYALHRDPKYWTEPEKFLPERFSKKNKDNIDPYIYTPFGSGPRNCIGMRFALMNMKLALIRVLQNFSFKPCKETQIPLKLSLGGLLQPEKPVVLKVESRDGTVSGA
Description: The Experiment for Inhibitory Effect on Cytochrome P-450 (CYP3A4) Originated from Human Liver Microsome
The test compounds dissolved in dimethylsulfoxide at 10 mM were added to 0.1 M phosphate buffer (pH7.4) containing 10 mM MgCl2, and human liver microsome (1.0 mg/mL) as enzyme and testosterone (50 μM) as a substrate for CYP3A4 were added to this 0.1M phosphate buffer in order to prepare phosphate buffer solution of the test compounds at final concentration of 10 μM (final volume 0.2 mL). The reaction was started by the addition of NADPH (1.0 mg/mL) and then incubated for 5 minutes at 37° C. After acetonitrile was added to stop the reaction, the residual concentration of testosterone was determined using LC/MS/MS, and calculated the rate of metabolism of substrate from the ratio of content of testosterone at end to that at start (A value). As the same way, the experiment except for the test compounds was carried out and remaining testosterone was determined in the same way as mentioned above. The rate of metabolism of substrate was calculated from the ratio of content of testosterone at end to that at start of the reaction (B value) as control value. The ratio of A value against B value was determined as a degree of incidence of test compounds on metabolic rate, which was shown in Table 70.

Row | SMILES | Ki (human V2 receptor [1]) | EC50 (human V2 receptor [3]) | IA (intrinsic activity) (human V2 receptor [3]) | Antidiuretic effect (decreasing rate of urine volume) ([2]; anesthetized male SD rats, against pre value) | Duration time ([2]; period until decreasing rate of urine volume restored to −20%) | Dead (Male SD rats) | (A value/B value) × 100 [4]
1 | CCOC(=O)CN1Cc2ccccc2N(C(=O)c2ccc(N3CCCC3)cc2Cl)CC1=O [Example 1-7, ethyl [1-(2-chloro-4-pyrro-lidin-1-ylbenzoyl)-3-ox-o-1,2,3,5-tetra-hydrobenzo[e]-1,4-di-azepin-4-yl]acetate] | 86.6 nM | 4 nM | 0.92 | −68.6% ^ | 30 min | 0/3 | 89.9
2 | O=C(O)CN1Cc2ccccc2N(C(=O)c2ccc(OCC(F)(F)F)cc2Cl)CC1=O [Example 2-5, 1-[2-chloro-4-(2,2,2-trifluoroethoxy)-benzoyl]-3-oxo-1,2,3,5-tetrahydrobenzo[e]-1,4-diazepin-4-yl acetic acid] | 197 nM | 10 nM | – | – | – | – | –
3 | O=C1CN(C(=O)c2ccc(N3CCCC3)cc2Cl)c2ccccc2CN1Cc1nnn[nH]1 [Example 15, 1-(2-Chloro-4-pyrrolidin-1-ylbenzoyl)-4-(1H-tetrazol-5-ylmethyl)-1,2,4,5-tetrahydrobenzo[e]-1,4-diazepin-3-one] | 97.7 nM | 1 nM | 1.09 | – | – | – | –
4 | Cc1nnc(CN2Cc3ccccc3N(C(=O)c3ccc(OCCCO)nc3C)CC2=O)o1 [Example 31-8, 1-[6-(3-hydroxypropoxy)-2-methylpyridine-3-carbonyl]-4-(5-methyl-1,3,4-oxadiazol-2-ylmethyl)-1,2,4,5-tetrahydrobenzo[e]-1,4-diazepin-3-one] | – | 44 nM | 1.18 | – | – | – | –

Continued by falling EC50 (human V2 receptor [3]), values first:

Row | Ki (human V2 receptor [1]) | EC50 (human V2 receptor [3]) | IA (intrinsic activity) (human V2 receptor [3]) | SMILES | Antidiuretic effect (decreasing rate of urine volume) ([2]; anesthetized male SD rats, against pre value) | Duration time ([2]; period until decreasing rate of urine volume restored to −20%) | Dead (Male SD rats) | (A value/B value) × 100 [4]
5 | – | 50 nM | 0.93 | Cc1nnc(CN2Cc3ccccc3N(C(=O)c3ccc(-n4cccn4)nc3)CC2=O)o1 [Example 1-29, 4-(5-methyl-1,3,4-oxadiazol-2-yl-methyl)-1-[6-(pyrazol-1-yl)py-ridine-3-carbonyl]-1,2,4,5-tetra-hydrobenzo[e]-1,4-di-azepin-3-one] | – | – | – | –
6 | 103 nM | 39 nM | 0.35 | O=C(O)CN1Cc2ccccc2N(C(=O)c2ccc(-c3ccccc3)cc2)CC1=O [Example 31-11, 1-(biphenyl-4-carbonyl)-3-oxo-1,2,3,5-tetrahydrobenzo[e]-1,4-diazepin-4-ylacetic acid] | – | – | – | –
7 | 322 nM | 6 nM | 1.09 | Cc1cnc(CN2Cc3ccccc3N(C(=O)c3ccc(OCCO)cc3Cl)CC2=O)o1 [Example 2-21, 1-[2-chloro-4-(2-hydroxyethoxy)benzoyl]-4-(5-methyloxazole-2-ylmethyl)-1,2,4,5-tetrahydrobenzo[e]-1,4-diazepin-3-one] | – | – | – | –
